This note sets out measurements from patent US10717746B2, “Chemical compounds” (ASTRAZENECA AB, priority 2015, dated 2020).

Assay [1] concerns the target T1, CDK9/CycT1 (Homo sapiens (Human), UniProt P50750). The assay can be described thus: CDK9 kinase assay, ATP concentration at Km (mobility shift, Caliper LC3000). Conditions: 6 μM ATP, 3 nM CDK9/CycT1; read-out: CDK9 ATP conc. at Km (IC50). The assay is classed as biochemical. The method in brief: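 3 nM CDK9/CycT1 with 6 µM ATP and 1.5 µM FITC-peptide (HEPES pH 7.2) was preincubated with compound 15 min at 25 °C. Reaction started with 10 mM MgCl2 and ran 90 min at 25 °C. Turnover was measured by mobility-shift separation of phosphorylated and unphosphorylated peptide.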

The target in assay [2] is T1, CDK9/CycT1. Nature of the assay: CDK9 kinase assay, high ATP concentration (5 mM ATP). The assay is classed as biochemical. The note with it: 1.5 nM CDK9, read-out: CDK9 High ATP conc. (IC50). Put shortly:
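Caliper mobility-shift read-out of phosphorylated vs unphosphorylated FITC-peptide (1.5 μM), giving percent turnover. Final 1.5 nM CDK9/CycT1 and 5 mM ATP in 50 mM HEPES pH 7.2, 1 mM DTT, 10 mM MgCl2; compound preincubated 15 min, reaction 90 min at 25° C, stopped with EDTA.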

Assay [3] relates to phosphorylation of RNA Polymerase II (RNAPII) at the Ser2 site in MCF7 cells. The assay can be described thus: MCF7 pSer2 RNAPII MOA assay (immunofluorescence). The assay is classed as cell-based. The note with it: Homo sapiens, MCF7, 6 h, 6-hr treatment, read-out: p-Ser 2 RNAPII (IC50). The method in brief: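 MCF7 cells (2500/well), plated overnight, were treated for 6 h at 37° C. with CDK9 inhibitors in a 7-point dose response from 3 μM to 0.004 μM. Cells were then fixed, permeabilized and immunostained for Ser2-phospho RNAPII with Alexa Fluor 488 secondary plus DAPI. Per-well phosphorylation was read by microplate cytometry.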

In assay [4] the test system is MV411 cells. Nature of the assay: MV411 caspase activity assay (Caspase-Glo 3/7). The assay is classed as cell-based. Conditions: Homo sapiens, MV4-11, 6 h, 6-hr treatment, caspase 3/7 induction. Put shortly: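 MV411 AML cells (3000/well) were plated overnight, then treated with compound for 6 h at 37 °C. Caspase-3/7 activity was read as luminescence after 30 min with Caspase-Glo 3/7 reagent at room temperature.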

T1 sequence (P50750 whole entry): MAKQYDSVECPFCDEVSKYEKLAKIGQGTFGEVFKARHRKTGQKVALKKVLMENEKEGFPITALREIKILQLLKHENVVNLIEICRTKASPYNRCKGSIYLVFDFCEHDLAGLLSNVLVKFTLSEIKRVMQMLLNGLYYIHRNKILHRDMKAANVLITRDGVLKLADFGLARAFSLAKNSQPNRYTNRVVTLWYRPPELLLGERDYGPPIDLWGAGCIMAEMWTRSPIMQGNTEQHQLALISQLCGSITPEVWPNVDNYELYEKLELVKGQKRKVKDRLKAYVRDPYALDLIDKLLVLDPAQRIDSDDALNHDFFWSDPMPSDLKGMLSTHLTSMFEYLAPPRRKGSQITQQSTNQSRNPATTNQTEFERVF
T1 sequence (O60563 whole entry partner): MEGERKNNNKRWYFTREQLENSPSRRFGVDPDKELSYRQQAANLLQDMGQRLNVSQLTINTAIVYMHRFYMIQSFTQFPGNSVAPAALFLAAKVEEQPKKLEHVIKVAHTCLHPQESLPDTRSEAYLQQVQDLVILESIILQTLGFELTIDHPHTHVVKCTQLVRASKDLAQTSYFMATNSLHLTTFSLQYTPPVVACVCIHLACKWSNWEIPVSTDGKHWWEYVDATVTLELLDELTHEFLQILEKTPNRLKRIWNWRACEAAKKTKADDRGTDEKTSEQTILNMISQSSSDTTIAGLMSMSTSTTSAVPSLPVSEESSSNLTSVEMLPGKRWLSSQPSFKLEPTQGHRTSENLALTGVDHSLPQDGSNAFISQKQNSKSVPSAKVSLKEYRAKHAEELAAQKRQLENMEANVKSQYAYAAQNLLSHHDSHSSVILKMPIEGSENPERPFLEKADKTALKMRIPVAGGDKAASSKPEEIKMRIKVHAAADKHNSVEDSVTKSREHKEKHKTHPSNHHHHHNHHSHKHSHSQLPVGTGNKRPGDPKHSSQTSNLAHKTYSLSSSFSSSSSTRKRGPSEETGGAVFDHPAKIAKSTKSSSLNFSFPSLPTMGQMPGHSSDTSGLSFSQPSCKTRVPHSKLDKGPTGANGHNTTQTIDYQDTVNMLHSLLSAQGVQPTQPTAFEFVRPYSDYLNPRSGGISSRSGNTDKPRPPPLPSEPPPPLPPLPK

In general, IC50 refers to the concentration at which inhibition is half-maximal. For the molecule `CC1(C)Cc2c(-c3cc(NC(=O)[C@H]4CCC[C@@H](NC(=O)[C@H]5C[C@@H](O)C5)C4)ncc3Cl)cnn2C1` [Example 53, (1S,3R)—N-(5-chloro-4-(5,5-dimethyl-5,6-dihydro-4H-pyrrolo[1,2-b]pyrazol-3-yl)pyridin-2-yl)-3-(cis-3-hydroxycyclobutanecarboxamido)cyclohexanecarboxamide], the IC50 is less than 0.003 µM in assay [1], less than 0.003 µM in assay [2], 0.012 µM in assay [3] and 0.013 µM in assay [4].
For the molecule `CC1(C)Cc2c(-c3cc(NC(=O)[C@H]4CCC[C@@H](N)C4)ncc3F)cnn2C1` [Example 54, (1S,3R)-3-amino-N-(4-(5,5-dimethyl-5,6-dihydro-4H-pyrrolo[1,2-b]pyrazol-3-yl)-5-fluoropyridin-2-yl)cyclohexane-1-carboxamide], the IC50 is 0.01 µM in assay [1], 0.777 µM in assay [2], 0.455 µM in assay [3] and 0.431 µM in assay [4].
In the same order, the values of `CC1(C)Cc2c(-c3cc(NC(=O)[C@H]4CCC[C@@H](NC(=O)C5(O)CC5)C4)ncc3F)cnn2C1` [Example 55, (1S,3R)—N-(4-(5,5-dimethyl-5,6-dihydro-4H-pyrrolo[1,2-b]pyrazol-3-yl)-5-fluoropyridin-2-yl)-3-(1-hydroxycyclopropanecarboxamido)cyclohexanecarboxamide] are less than 0.003 µM, less than 0.003 µM, 0.007 µM and 0.01 µM.
The corresponding values for `CC1(C)Cc2ncc(-c3cc(NC(=O)[C@H]4CCC[C@@H](NC(=O)C5(O)CC5)C4)ncc3Cl)n2C1` [Example 56, (1S,3R)—N-(5-chloro-4-(6,6-dimethyl-6,7-dihydro-5H-pyrrolo[1,2-a]imidazol-3-yl)pyridin-2-yl)-3-(1-hydroxycyclopropanecarboxamido)cyclohexanecarboxamide] are less than 0.003 µM, 0.004 µM, 0.029 µM and 0.022 µM.
The corresponding values for `CC1(C)Cc2ncc(-c3cc(NC(=O)[C@H]4CCC[C@@H](NC(=O)C5COC5)C4)ncc3Cl)n2C1` [Example 57, N-((1R,3S)-3-((5-chloro-4-(6,6-dimethyl-6,7-dihydro-5H-pyrrolo[1,2-a]imidazol-3-yl)pyridin-2-yl)carbamoyl)cyclohexyl)oxetane-3-carboxamide] are less than 0.003 µM, 0.004 µM, 0.028 µM and 0.053 µM.
On to `CC1(C)Cc2ncc(-c3cc(NC(=O)[C@H]4C[C@@H](O)C4)ncc3Cl)n2C1` [Example 58, cis-N-(5-chloro-4-(6,6-dimethyl-6,7-dihydro-5H-pyrrolo[1,2-a]imidazol-3-yl)pyridin-2-yl)-3-hydroxycyclobutanecarboxamide], for which the IC50 is less than 0.003 µM in assay [1], 0.041 µM in assay [2], 0.017 µM in assay [3] and 0.076 µM in assay [4].
In the same order, the values of `CC(=O)N[C@@H]1CCC[C@H](C(=O)Nc2cc(-c3cnn4c3CCCC4)c(F)cn2)C1` [Example 63, (1S,3R)-3-acetamido-N-(5-fluoro-4-(4,5,6,7-tetrahydropyrazolo[1,5-a]pyridin-3-yl)pyridin-2-yl)cyclohexanecarboxamide] are less than 0.003 µM, 0.051 µM, 0.104 µM and 0.159 µM.
On to `CC(=O)N[C@@H]1CCC[C@H](C(=O)Nc2cc(-c3cnn4c3CCCCC4)c(Cl)cn2)C1` [Example 66, (1S,3R)-3-acetamido-N-(5-chloro-4-(5,6,7,8-tetrahydro-4H-pyrazolo[1,5-a]azepin-3-yl)pyridin-2-yl)cyclohexanecarboxamide], for which the 50% inhibitory concentration (IC50) in assay [1] is less than 0.003 µM; in assay [2], 0.023 µM; in assay [3] it was 0.092 µM; in assay [4], 0.183 µM.
The corresponding values for `O=C(N[C@@H]1CCC[C@H](C(=O)Nc2cc(-c3cnn4c3CCCC4)c(Cl)cn2)C1)C1COC1` [Example 67, N-((1R,3S)-3-((5-chloro-4-(4,5,6,7-tetrahydropyrazolo[1,5-a]pyridin-3-yl)pyridin-2-yl)carbamoyl)cyclohexyl)oxetane-3-carboxamide] are less than 0.003 µM, 0.019 µM, 0.062 µM and 0.099 µM.
The corresponding values for `CC(=O)N[C@@H]1CCC[C@H](C(=O)Nc2cc(-c3cnn4c3CCCCC4)c(F)cn2)C1` [Example 74, (1S,3R)-3-acetamido-N-(5-fluoro-4-(5,6,7,8-tetrahydro-4H-pyrazolo[1,5-a]azepin-3-yl)pyridin-2-yl)cyclohexanecarboxamide] are less than 0.003 µM, 0.039 µM, 0.192 µM and 0.281 µM.
In the same order, the values of `Cc1cnc(NC(=O)[C@H]2CCC[C@@H](NC(=O)CO)C2)cc1-c1cnn2c1CC(C)(C)C2` [Example 75, (1S,3R)—N-(4-(5,5-dimethyl-5,6-dihydro-4H-pyrrolo[1,2-b]pyrazol-3-yl)-5-methylpyridin-2-yl)-3-(2-hydroxyacetamido)cyclohexanecarboxamide] are less than 0.003 µM, 0.029 µM, 0.067 µM and 0.111 µM.
On to `Cc1cnc(NC(=O)[C@H]2CCC[C@@H](NC(=O)C3COC3)C2)cc1-c1cnn2c1CC(C)(C)C2` [Example 76, N-((1R,3S)-3-((4-(5,5-dimethyl-5,6-dihydro-4H-pyrrolo[1,2-b]pyrazol-3-yl)-5-methylpyridin-2-yl)carbamoyl)cyclohexyl)oxetane-3-carboxamide], for which the IC50 is less than 0.003 µM in assay [1], 0.009 µM in assay [2], 0.038 µM in assay [3] and 0.036 µM in assay [4].
The corresponding values for `CC(=O)N[C@@H]1CCC[C@H](C(=O)Nc2cc(-c3cnn4c3CCCC4)c(C)cn2)C1` [Example 77, (1S,3R)-3-acetamido-N-(5-methyl-4-(4,5,6,7-tetrahydropyrazolo[1,5-a]pyridin-3-yl)pyridin-2-yl)cyclohexanecarboxamide] are 0.004 µM, 0.213 µM, 0.338 µM and 0.543 µM.
The corresponding values for `CC(=O)N[C@@H]1CCC[C@H](C(=O)Nc2cc(-c3cnn4c3CCCC4O)c(Cl)cn2)C1` (stereo partly drawn) [Example 78, (1S,3R)-3-acetamido-N-(5-chloro-4-(7-hydroxy-4,5,6,7-tetrahydropyrazolo[1,5-a]pyridin-3-yl)pyridin-2-yl)cyclohexanecarboxamide] are less than 0.003 µM, 0.06 µM, 0.72 µM and 1.23 µM.
In the case of `CC(=O)N[C@@H]1CCC[C@H](C(=O)Nc2cc(-c3cn[nH]c3CCCCO)c(Cl)cn2)C1` [Example 78a, (1S,3R)-3-acetamido-N-(5-chloro-4-(5-(4-hydroxybutyl)-1H-pyrazol-4-yl)pyridin-2-yl)cyclohexanecarboxamide], the IC50 in assay [1] is less than 0.003 µM; in assay [2] it was 0.085 µM; in assay [3], greater than 2.63 µM; in assay [4] it was 7.13 µM.
For `CC(=O)N[C@H]1CCC[C@@H](C(=O)Nc2cc(-c3cnn4c3CC(C)(C)C4)c(F)cn2)C1` [Example 81, (1R,3S)-3-acetamido-N-(4-(5,5-dimethyl-5,6-dihydro-4H-pyrrolo[1,2-b]pyrazol-3-yl)-5-fluoropyridin-2-yl)cyclohexanecarboxamide], the IC50 in assay [1] stood at 0.008 µM; in assay [2], 0.554 µM; in assay [3], 0.665 µM; in assay [4], 0.896 µM.
The corresponding values for `CC(=O)N[C@@H]1CCC[C@H](C(=O)Nc2cc(-c3cnn4c3CC(C)(C)C4O)c(Cl)cn2)C1` (stereo partly drawn) [Example 82, (1S,3R)-3-acetamido-N-(5-chloro-4-(6-hydroxy-5,5-dimethyl-5,6-dihydro-4H-pyrrolo[1,2-b]pyrazol-3-yl)pyridin-2-yl)cyclohexane-1-carboxamide] are less than 0.004 µM, 0.022 µM, 0.174 µM and 0.124 µM.
With `CC(=O)N[C@@H]1CCC[C@H](C(=O)Nc2cc(-c3cn[nH]c3CC(C)(C)CO)c(Cl)cn2)C1` [Example 82a, (1S,3R)-3-acetamido-N-(5-chloro-4-(5-(3-hydroxy-2,2-dimethylpropyl)-1H-pyrazol-4-yl)pyridin-2-yl)cyclohexane-1-carboxamide], the concentration for half-maximal inhibition (IC50) in assay [1] was 0.004 µM; in assay [2], 0.139 µM; in assay [3], greater than 2.34 µM; in assay [4], 2.26 µM.
